According to publication PMC11079064, “Discovery of a brain penetrant small molecule antagonist targeting LPA1 receptors to reduce neuroinflammation and promote remyelination in multiple sclerosis” (Scientific Reports, 2024):

Key:
rat OPCs = assay: OPC differentiation assay (PDGF withdrawal, MBP+ oligodendrocytes); type: cell-based; details: PDGF removed, 3 days treatment, percent of T3 induced differentiation; read-out: EC50 of increase in differentiated MBP+ oligodendrocytes
Method: Given the expression of Lpar1 on OPCs, we wanted to know how direct, exogenous application of LPA would affect OPC differentiation. Using the same PDGF withdrawal paradigm to induce OPC differentiation, we added various concentrations of LPA to the culture media and quantified MBP^+ oligodendrocytes 3 days later.
Primary rat OPCs were isolated and cultured in the presence of PDGF. One day later, PDGF was removed and various doses of PIPE-791 were added to the cultures. These cultures were fixed 3 days post-PIPE-791 treatment and immunostained for MBP.
OPC isolation: For immunopanning purification of OPCs, cortical hemispheres were dissected from postnatal day 8 Sprague–Dawley rat pups. Tissue culture dishes were incubated overnight with goat IgG secondary antibodies to mouse (Jackson Laboratories, Bar Harbor, ME). Dishes were rinsed and incubated at room temperature with primary antibodies for Ran-2, GalC and O4 (gift from Jonah Chan lab). Rodent cortical hemispheres were minced and dissociated with papain (Thermo Fisher, Waltham, MA) for 1 h at 37°. After dissociation, cells were resuspended in a panning buffer (0.2% BSA in DPBS) and incubated at room temperature sequentially on three immunopanning dishes: Ran-2 and GalC were used for negative selection before positive selection with O4. […]

microglia = assay: Microglial myelin debris phagocytosis assay; type: cell-based, rat; details: any concentration, activated microglia, 90 min myelin debris
Method: Fluoromyelin-labeled myelin debris was added for 90 min and then the cultures were fixed. IBA1^+/fluoromyelin^+ cells were quantified and normalized to total IBA1^+ cells.
For phagocytosis, microglia were harvested from cortical cultures generated from P2 rats. Cortices were isolated, meninges removed, minced and digested in 0.05% trypsin (Invitrogen, Carlsbad, CA, Carlsbad, CA) for 15 min at 37 °C. Tissue was allowed to settle, trypsin removed and HBSS (Corning, Glendale, AZ) with 20% FBS (20% HBSS) was added to halt further digestion. Tissue was washed again in 20% HBSS and resuspended in DMEM with 10% FBS and penicillin/streptomycin (10% DMEM). Cells were plated in a T150 flask and cultured for 10 days with media changes every other day. Microglia were mechanically isolated by tapping flask against the hood surface. Microglia were transferred to a conical and centrifuged at 800 × g for 15 min and resuspended in 10% DMEM, plated in 96 wells at a density of 5000/well and cultured for 3 days. […] Fluoromyelin labeled myelin debris was added to each well and incubated for 90 min. Microglia were then fixed and immunostained for IBA1 (Invitrogen, Carlsbad, CA, Carlsbad, CA). […]
Supplemental Figure 7. […] Total IBA1^+ and IBA1^+/fluoromyelin^+ cells were counted. […]

[1] = test system: CC1+/OLIG2+ oligodendrocytes; assay: In vivo CC1 induction assay; set-up: species or system mouse; details: single 3 mg/kg dose, brains collected 5 days later
From the text: Sections were immunostained for the mature oligodendrocyte marker, CC1, and the oligodendroglial marker, OLIG2 to represent the total OPC/oligodendrocyte population.
Female C57Bl/6 mice (9–11 weeks old) were used in this experiment, n = 5/group. […] On day 5, mice were sacrificed and brains submerged in formalin. Tissue was sectioned at 40 µm on a sliding microtome (ThermoFisher, Microm HM450, Waltham, MA). Four sections per mouse were immunostained. Sections were permeabilized and blocked by incubation with 20% goat serum (Millipore Sigma, St. Louis, MO) and 0.2% Triton X-100 (Millipore Sigma, St. Louis, MO) in PBS. Oligodendrocytes were detected with a rat monoclonal antibody to Anti-APC (1:500, Calbiochem, San Diego, CA), and the total pool OPC/oligodendrocyte pool were detected with a rabbit monoclonal antibody to Olig-2 (1:500, Invitrogen, Carlsbad, CA). Alexa Fluor 594 and 647 IgG secondary antibodies against rat and rabbit (1:1000, Invitrogen, Carlsbad, CA) were used for primary antibody detection. Cell nuclei were identified with Hoechst (1:1000, Invitrogen, Carlsbad, CA). […] Detection and quantification of the cells were performed using NIS Elements imaging software (Nikon, Minato, Tokyo).
Supplemental Figure 5. […] Sections were immunostained using antibodies against CC1 (mature oligodendrocytes), Olig2 (oligodendroglial marker), and counterstained with Hoechst. […]

[2] = Plasma concentration time course after oral dose; type: in vivo; details: 3 mg/kg oral, mouse

- EC50 (rat OPCs): 108 nM
- plasma concentration after 3 days [2]: below the limit of detection
- time of peak plasma concentration [2]: 2 h
Structure (SMILES): COc1ccc(NC(=O)N(c2ccccc2C(C)C)C2CCC(C(=O)O)CC2)c(OC(F)F)n1 (centres unmarked) [PIPE-791]
- effect on myelin phagocytosis compared to vehicle (microglia): No significant decrease
- increase in CC1+/OLIG2+ oligodendrocytes [1]: 163%
